The values that follow come from patent publication US6479487B1, “6, 9-disubstituted 2-[trans-(4-aminocyclohexyl)amino] purines” (Aventis Pharmaceuticals Inc., priority 1998, dated 2002).

Test [1] concerns HT-29. Briefly: In vitro tumor cell proliferation, HT-29. To be noted: many values given with an undefined *, read-out: In vitro Tumor Cell Proliferation (IC50, μM) Colon HT-29. The test is classed as cell-based, human. The procedure, abridged: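 Growth was quantified either with CyQUANT, plates frozen at −80° C after 3 days of drug, or by sulforhodamine B staining of TCA-fixed cells after 3 days of drug plus 4 days with fresh drug. Trypan blue-excluding HT-29 cells were plated overnight at 37° C before dosing.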

Test [2] concerns PC-3. Briefly: In vitro tumor cell proliferation, PC-3. To be noted: many values given with an undefined *, read-out: In vitro Tumor Cell Proliferation (IC50, μM) Prostate PC-3. Format: cell-based, human. The procedure, abridged: (§1)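 Growth was quantified by sulforhodamine B staining of TCA-fixed cells after 3 days of drug plus 4 more days with fresh drug, or by CyQUANT after 3 days of drug and freezing at −80° C. Counted viable cells were plated and incubated overnight at 37° C before drug.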

The test system of test [3] is DU145. Kind of test: In vitro tumor cell proliferation, DU145. The test is classed as cell-based, human. The note with it: many values given with an undefined *, read-out: In vitro Tumor Cell Proliferation (IC50, μM) Prostate DU145. A digest of the protocol: as §1
Test [4] concerns the target T1, cdk4/cyclin D1 (Homo sapiens, UniProt P11802).
T1 construct: made in house; host or cells: Sf9 insect cells (Bac-to-Bac baculovirus, pFastBac)
Kind of test: Cyclin-dependent Kinase 4 Assay (cdk4/cyclin D1, GST-Rb substrate). Format: biochemical. The note with it: cdk4/cyclin D1 insect cell lysate, 10 μM ATP, 30 min at 37° C., several values = separate determinations, read-out: CDK4 Inhibition IC50. A digest of the protocol:
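IC50 against cdk4 measured by scintillation counting of bead-bound GST-Rb (0.5 μg) after filtration and four TNEN washes. Reaction was 30 min at 37 °C in HEPES pH 7.5 buffer with 10 mM MgCl2 and 1 mM EGTA. Enzyme source was 0.1 μg Sf9 lysate coinfected with cdk4 and cyclin D1.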

Test [5] concerns MDA-MB-435. Kind of test: In vitro tumor cell proliferation, MDA-MB-435. To be noted: values given with an undefined *, read-out: In vitro Tumor Cell Proliferation (IC50, μM) Breast MDA-MB-435. Format: cell-based. A digest of the protocol: as §1
Test [6] has as its target T2, cdk2/cyclin E (Homo sapiens, UniProt P24941).
T2 construct: made in house; host or cells: insect cells (baculovirus co-infection)
Briefly: Cyclin-Dependent Kinase 2 Assay (cdk2/cyclin E, GST-Rb substrate). The note with it: recombinant cdk2/cyclin E, 10 μM ATP, 30 min at 30° C., several values in a cell = separate determinations, read-out: CDK-2 Inhibition IC50. Format: biochemical. The protocol:
Substrate: GST-Rb as described above for cdk4/cyclin D1
Assay conditions for cdk2/cyclin E were identical to those for cdk4/cyclin D1 including the substrate. The concentration of recombinant cdk2/cyclin E in the assay was 0.1 μg per 100 μl assay. Incubation was for 30 min at 30° C.

Test [7] relates to DMS-114. Briefly: In vitro tumor cell proliferation, DMS-114. To be noted: many values given with an undefined *, read-out: In vitro Tumor Cell Proliferation (IC50, μM) Lung DMS-114. The test is classed as cell-based, human. The procedure, abridged: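 Human small cell lung carcinoma DMS-114 cells plated overnight, then drug-treated for 3 days, medium and drug renewed, and incubated 4 more days. Growth read by sulforhodamine B staining after TCA fixation; alternatively by CyQUANT after 3 days' drug exposure and freezing at −80 °C.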

Test [8] has as its system Colo-205. Kind of test: In vitro tumor cell proliferation, Colo-205. The test is classed as cell-based. The note with it: values given with an undefined *, read-out: In vitro Tumor Cell Proliferation (IC50, μM) Colon Colo-205. A digest of the protocol:
as §1

Test [9] deals with A549. Briefly: In vitro tumor cell proliferation, A549. To be noted: many values given with an undefined *, read-out: In vitro Tumor Cell Proliferation (IC50, μM) Lung A549. Format: cell-based, human. The procedure, abridged: as §1
The test system of test [10] is MDA-MB-231. Kind of test: In vitro tumor cell proliferation, MDA-MB-231. To be noted: sulforhodamine B or CyQUANT assay, many values given with an undefined *, read-out: In vitro Tumor Cell Proliferation (IC50, μM) Breast MDA-MB-231. Format: cell-based, human. The procedure, abridged: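 Proliferation quantified by SRB staining of TCA-fixed cells after 3 days of drug plus 4 days with replenished drug, following overnight attachment at 37 °C.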

[11] abbreviates: Homo sapiens, MDA-MB-435, MDA-MB-435.
Where [12] appears, read: Homo sapiens, COLO 205, Colo-205.
The mark [13] stands for this setting: Homo sapiens, MDA-MB-231, MDA-MB-231.

Values joined by “and” are separate entries in the source; they are usually repeats but may differ in a detail not shown here. Identical values can stand only once. Counter-ions that a name gives are not always drawn. Like-named read-outs stand apart in the source and are kept apart here.

T1 sequence (P11802 whole entry): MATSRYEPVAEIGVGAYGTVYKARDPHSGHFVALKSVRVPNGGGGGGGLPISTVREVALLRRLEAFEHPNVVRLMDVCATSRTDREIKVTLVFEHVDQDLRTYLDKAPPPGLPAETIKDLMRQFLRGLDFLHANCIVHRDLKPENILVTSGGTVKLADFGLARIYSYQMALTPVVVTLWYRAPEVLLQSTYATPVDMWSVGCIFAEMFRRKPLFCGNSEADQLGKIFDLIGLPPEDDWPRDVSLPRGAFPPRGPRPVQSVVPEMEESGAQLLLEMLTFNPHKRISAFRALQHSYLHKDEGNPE
T1 sequence (P24385 whole entry partner): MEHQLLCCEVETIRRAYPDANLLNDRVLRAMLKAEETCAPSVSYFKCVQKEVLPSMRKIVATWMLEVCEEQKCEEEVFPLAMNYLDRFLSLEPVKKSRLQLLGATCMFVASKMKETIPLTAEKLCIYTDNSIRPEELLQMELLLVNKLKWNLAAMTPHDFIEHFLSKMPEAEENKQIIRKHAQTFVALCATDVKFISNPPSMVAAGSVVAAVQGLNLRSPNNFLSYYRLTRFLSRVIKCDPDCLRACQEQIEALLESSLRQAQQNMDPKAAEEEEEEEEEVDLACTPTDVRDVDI

For `N[C@H]1CC[C@H](Nc2nc(NC3CCN(Cc4cccc5ccccc45)CC3)c3ncn(C4CCCC4)c3n2)CC1` [Example 147-a, 2-[Trans-(4-aminocyclohexyl)amino]-6-[4-[1-(1-naphthyl)methyl]piperidinylamino)-9-cyclopentylpurine trihydrochloride], the IC50 in [1] (Homo sapiens, HT-29, HT-29) was 0.32 µM; in test [2] (Homo sapiens, PC-3, PC-3), 0.24 µM; in [2] (PC-3, trihydrochloride), 0.34 µM; in test [3] (DU145, trihydrochloride), 0.33 µM; in test [3] (Homo sapiens, DU-145, DU145), 0.22 µM; in [4] it was 2900 nM and 2100 nM. Moreover, the IC50 in [5] (setting [11]) was 0.42 µM; in test [5] (MDA-MB-435, trihydrochloride), 0.408 µM; in test [6], 410 nM and 97 nM and 440 nM; in [7] (DMS-114, trihydrochloride) it was 0.33 µM; in [7] (Homo sapiens, DMS-114, DMS-114) it was 0.32 µM; in [8] (setting [12]), 0.2 µM. Besides, the IC50 was determined as 0.17 µM in [9] (Homo sapiens, A549, A549); 0.35 µM in test [10] (setting [13]); 0.34 µM in test [10] (MDA-MB-231, trihydrochloride).
For the compound `N[C@H]1CC[C@H](Nc2nc(NC3CCN(Cc4ccc(C(F)(F)F)cc4C(F)(F)F)CC3)c3ncn(C4CCCC4)c3n2)CC1` [Example 147-aa, 2-[Trans-(4-aminocyclohexyl)amino]-6-[4-[1-(2,4-bis-trifluoromethylbenzyl)]piperidinylamino]-9-cyclopentylpurine trihydrochloride], the IC50 in test [1] (HT-29, trihydrochloride) was 2.8 µM and 2.3 µM; in test [2] (PC-3, trihydrochloride), 3.8 µM and 4.6 µM; in test [3] (DU145, trihydrochloride), 4.4 µM and 4.3 µM; in test [4] (trihydrochloride) it was 10000 nM and 8400 nM; in [5] (MDA-MB-435, trihydrochloride), 5.8 µM and 4.9 µM; in [6] (trihydrochloride) it was 1600 nM and 2600 nM. Besides, the IC50 in test [7] (DMS-114, trihydrochloride) was 2.7 µM and 2.9 µM; in [8] (Colo-205, trihydrochloride) it was 4 µM and 2.9 µM; in test [9] (A549, trihydrochloride) it was 4.1 µM and 3.6 µM; in test [10] (MDA-MB-231, trihydrochloride), 2.5 µM and 3.1 µM.
Consider `N[C@H]1CC[C@H](Nc2nc(NC3CCN(Cc4ccccc4OC(F)(F)F)CC3)c3ncn(C4CCCC4)c3n2)CC1` [Example 147-ab, 2-[Trans-(4-aminocyclohexyl)amino]-6-[4-[1-(2-trifluoromethoxybenzyl)]piperidinylamino]-9-cyclopentylpurine trihydrochloride], for which the IC50 in [1] (HT-29, trihydrochloride) is 0.62 µM; in test [1] (Homo sapiens, HT-29, HT-29), 0.73 µM; in test [2] (Homo sapiens, PC-3, PC-3) it was 0.69 µM; in [3] (DU145, trihydrochloride) it was 0.6 µM; in test [3] (Homo sapiens, DU-145, DU145), 0.59 µM; in [4], 4500 nM and 2700 nM. In addition, the IC50 was 0.84 µM in test [5] (setting [11]); 0.91 µM in test [5] (MDA-MB-435, trihydrochloride); 250 nM and 900 nM in test [6]; 0.64 µM in test [7] (DMS-114, trihydrochloride); 0.74 µM in test [7] (Homo sapiens, DMS-114, DMS-114); 0.45 µM in test [8] (Colo-205, trihydrochloride). In addition, the IC50 amounted to 0.43 µM in [8] (setting [12]); 0.39 µM in [9] (A549, trihydrochloride); 0.33 µM in test [9] (Homo sapiens, A549, A549); 0.62 µM in test [10] (setting [13]); 0.7 µM in [10] (MDA-MB-231, trihydrochloride).
On to `N[C@H]1CC[C@H](Nc2nc(NCC3CCN(Cc4ccccc4)CC3)c3ncn(C4CCCC4)c3n2)CC1` [Example 147-ac, 2-[Trans-(4-aminocyclohexyl)amino]-6-[4-(1-benzyl)piperidinylmethylamino]-9-cyclopentylpurine trihydrochloride], for which the IC50 was 0.93 µM in test [1] (HT-29, trihydrochloride); 1 µM in [1] (Homo sapiens, HT-29, HT-29); 0.78 µM in test [2] (Homo sapiens, PC-3, PC-3); 0.82 µM in [2] (PC-3, trihydrochloride); 0.66 µM in test [3] (DU145, trihydrochloride); 0.71 µM in [3] (Homo sapiens, DU-145, DU145). Besides, the IC50 was 3300 nM and 1200 nM in [4]; 0.97 µM in [5] (setting [11]); 1.1 µM in [5] (MDA-MB-435, trihydrochloride); 170 nM and 370 nM and 530 nM and 400 nM in test [6]; 1 µM in [7] (DMS-114, trihydrochloride); 1.4 µM in test [7] (Homo sapiens, DMS-114, DMS-114). Also, the IC50 in test [8] (Colo-205, trihydrochloride) is 0.66 µM; in test [8] (setting [12]) it was 0.61 µM; in [9] (A549, trihydrochloride) it was 0.62 µM; in test [9] (Homo sapiens, A549, A549), 0.47 µM; in [10] (setting [13]), 0.79 µM; in [10] (MDA-MB-231, trihydrochloride), 0.75 µM.
